According to ChEMBL document CHEMBL4393680, “Design, synthesis and biological evaluation of novel thioquinazolinone-based 2-aminobenzamide derivatives as potent histone deacetylase (HDAC) inhibitors” (Eur J Med Chem, 2019):

How the values were obtained:
[1] = test system: HCT-116; assay: Antiproliferative activity against human HCT116 cells assessed as reduction in cell growth at 2 uM incubated for 72 hrs by CCK-8 assay relative to control; type: functional; settings: HCT-116, 72 h
[2] = test system: HCT-116; assay: Antiproliferative activity against human HCT116 cells assessed as reduction in cell growth at 8 uM incubated for 72 hrs by CCK-8 assay relative to control; type: functional; settings: HCT-116, 72 h
[3] = test system: A549; assay: Antiproliferative activity against human A549 cells assessed as reduction in cell growth at 8 uM incubated for 72 hrs by CCK-8 assay relative to control; type: functional; settings: A549, 72 h
[4] = test system: A549; assay: Antiproliferative activity against human A549 cells assessed as reduction in cell growth at 2 uM incubated for 72 hrs by CCK-8 assay relative to control; type: functional; settings: A549, 72 h
[5] = test system: HeLa; assay: Antiproliferative activity against human HeLa cells assessed as reduction in cell growth at 2 uM incubated for 72 hrs by CCK-8 assay relative to control; type: functional
[6] = test system: SMMC-7721; assay: Antiproliferative activity against human SMMC7721 cells assessed as reduction in cell growth at 8 uM incubated for 72 hrs by CCK-8 assay relative to control; type: functional; settings: SMMC-7721, 72 h
[7] = test system: A-375; assay: Antiproliferative activity against human A375 cells assessed as reduction in cell growth at 8 uM incubated for 72 hrs by CCK-8 assay relative to control; type: functional; settings: A-375, 72 h
[8] = test system: A-375; assay: Antiproliferative activity against human A375 cells assessed as reduction in cell growth at 2 uM incubated for 72 hrs by CCK-8 assay relative to control; type: functional; settings: A-375, 72 h
[9] = test system: HeLa; assay: Antiproliferative activity against human HeLa cells assessed as reduction in cell growth at 8 uM incubated for 72 hrs by CCK-8 assay relative to control; type: functional
[10] = test system: SMMC-7721; assay: Antiproliferative activity against human SMMC7721 cells assessed as reduction in cell growth at 2 uM incubated for 72 hrs by CCK-8 assay relative to control; type: functional; settings: SMMC-7721, 72 h
[11] = test system: SMMC-7721; assay: Antiproliferative activity against human SMMC7721 cells assessed as reduction in cell growth incubated for 72 hrs by CCK-8 assay; type: functional, cell-based; settings: SMMC-7721, 72 h

IC50 [11]	SMILES	inhibition at 2 µM [1]	inhibition at 8 µM [2]	inhibition at 8 µM [3]	inhibition at 2 µM [4]	inhibition at 2 µM [5]	inhibition at 8 µM [6]	inhibition at 8 µM [7]	inhibition at 2 µM [8]	inhibition at 8 µM [9]	inhibition at 2 µM [10]
	COc1ccc2c(=O)n(-c3cccc(Cl)c3)c(SCc3ccc(/C=C/C(=O)Nc4ccccc4N)cc3)nc2c1	2.1%	12.7%	37.2%	4.1%	16.3%	5.1%	8.9%	5.4%	24.9%	0.7%
6.45 µM	Cc1ccc2c(=O)n(C)c(SCc3ccc(/C=C/C(=O)Nc4ccccc4N)cc3)nc2c1	2.3%	32.2%	41.4%	20.3%	22.1%	63.6%	36.1%	29%	27.7%	20.2%
3.56 µM	Cc1cccc2nc(SCc3ccc(/C=C/C(=O)Nc4ccccc4N)cc3)n(C)c(=O)c12	8.9%	11.7%	46%	39.4%	44.3%	52.3%	32.4%	24.4%	51.8%	50.5%
	COc1ccc2c(=O)n(C)c(SCc3ccc(/C=C/C(=O)Nc4ccccc4N)cc3)nc2c1	9.4%	12.2%	56.6%	54.3%	20.7%	15.4%	10.4%	2.5%	30.2%	3.6%
	CCn1c(SCc2ccc(/C=C/C(=O)Nc3ccccc3N)cc2)nc2cc(Cl)ccc2c1=O	12.1%	28.4%	45.7%	31.6%	8.7%	28.4%	22.9%	12%	21.8%	12.1%
	CCn1c(SCC(=O)Nc2ccccc2N)nc2cc(Cl)ccc2c1=O	3.9%	6.9%	27.5%	14.2%	39.2%	2.1%	32.5%	24.4%	59.7%	1.8%
	CCn1c(SCc2ccc(C(=O)Nc3ccccc3N)cc2)nc2cc(F)ccc2c1=O	5.3%	64.3%	56.5%	54.4%	25.7%	20.4%	10.3%	8.4%	31%	0.8%
	COc1ccc2c(=O)n(-c3cccc(Cl)c3)c(SCC(=O)Nc3ccccc3N)nc2c1	3.9%	6.6%	28.2%	13%	27.8%	38.1%	43.3%	3.2%	38.5%	24.6%
	CCCCn1c(SCc2ccc(/C=C/C(=O)Nc3ccccc3N)cc2)nc2cc(F)ccc2c1=O	12%	33.2%	13.5%	4.6%	11.6%	29%	15.8%	1.9%	26.2%	10.2%
	Cn1c(SCc2ccc(/C=C/C(=O)Nc3ccccc3N)cc2)nc2cc(Br)ccc2c1=O	9%	19.4%	14%	1.9%	17.7%	15.2%	6.3%	4%	30.3%	13.2%
	Cc1ccc2nc(SCc3ccc(/C=C/C(=O)Nc4ccccc4N)cc3)n(C)c(=O)c2c1	7.2%	18.6%	38.7%	26.7%	25.5%	57.6%	22.8%	9%	55.3%	34.1%
	CCn1c(SCc2ccc(C(=O)Nc3ccccc3N)cc2)nc2cc(OC)ccc2c1=O	5%	6.7%	30.3%	28%	42.1%	45.8%	31.4%	20%	44%	32.2%
	CCn1c(SCc2ccc(C(=O)Nc3ccccc3N)cc2)nc2cc(Cl)ccc2c1=O	7.3%	7.4%	13.7%	3.6%	39.1%	34.2%	49.9%	12.7%	43.4%	18.4%
4.86 µM	CCn1c(SCc2ccc(C(=O)Nc3cc(F)ccc3N)cc2)nc2cc(OC)ccc2c1=O	50.3%	67.8%	36.4%	12.3%	6.9%	61.4%	38.8%	17.1%	41.6%	36%
	Nc1ccccc1NC(=O)c1ccc(CSc2nc3cc(Br)ccc3c(=O)n2-c2cccc(Cl)c2)cc1	11.3%	31.3%	36.4%	35.6%	55%	21%	32.9%	17.4%	67%	10.5%
	Cc1cccc2c(=O)n(C)c(SCc3ccc(/C=C/C(=O)Nc4ccccc4N)cc3)nc12	4.5%	5.8%	43.8%	34%	31.6%	36.4%	13.7%	9.3%	56.6%	26.3%
	CCCCn1c(SCc2ccc(C(=O)Nc3ccccc3N)cc2)nc2cc(Br)ccc2c1=O	14.1%	51.9%	39.7%	28.1%	21.3%	26.4%	37.7%	8.5%	34.7%	18.2%
	Cn1c(SCc2ccc(/C=C/C(=O)Nc3ccccc3N)cc2)nc2cc(F)ccc2c1=O	0.9%	3.3%	22.9%	2.9%	12.7%	29.5%	6.4%	1.6%	21.2%	12.3%
